Measurements: US12697316B2, “Combination therapy with acetyl-leucine and miglustat” (INTRABIO LTD., priority 2019, dated 2026)

Assays:
Sandhoff (Hexb^−/−) mice [1] = experiment: Bar crossing test in Sandhoff (Hexb−/−) mice; assay type: in vivo, mouse; conditions: 12 and 13 weeks
Protocol: (§1) BALBc/NPC ^h and Sandhoff mice were bred as heterozygotes to generate affected mice (Npc1^−/−, Hexb^−/−) and controls (Npc^+/+, Hexb^+/+). The mice were housed under non-sterile conditions, with food and water available ad libitum. All experiments were conducted using protocols approved by the UK Home Office Animal Scientific Procedures Act, 1986.
ADLL and enantiomers (ADLL: Molekula #73891210, ALL: Sigma Aldrich #441511, ADL: Sigma #A0876) were administered as dry admix in powdered mouse diet (PicoLab Rodent Diet 20/5053, LabDiet) at a dose of 0.1 g/kg/day for in vivo studies. Treatment groups for in vivo study consisted of at least 5 mice per group. […]
The weight and activity of each mouse was recorded weekly until reaching the humane endpoint (defined as a loss of 1 g body weight within 24 h). Gait analysis was performed using CatWalk 10.5 system (Noldus) according to the manufacturer's instructions and five runs were recorded per animal at each time point. […] Motor function was measured using an accelerating NG Rota Rod for mice (Ugo Basile) starting from 1 rpm to 10 rpm, accelerating every 30 seconds by one rpm. […] Latency to cross or fall from the bar was scored, with 120 sec, maximum, to termination of each trial. […]

[2] = system: GM2 gangliosidosis patients; experiment: Observational case series in GM2 gangliosidosis patients; assay type: in vivo, human; conditions: three GM2 gangliosidosis patients
Protocol: Observational studies in GM2 gangliosidosis Patients: In a prospective observational case series in three patients with genetically proven GM2 gangliosidoses (2 patients with Tay-Sachs disease, 1 patient with Sandhoff disease) the symptomatic effects of ADLL was evaluated. Patients were treated with 0.1 g per kg body weight per day, for at least four weeks and the clinical effects determined using the Scale for the Assessment and Severity of Ataxia (SARA), the 8-meter walk test (8MWT) and the Montreal Cognitive Assessment (MoCA). Consent from all participants was obtained.
A patient with a genetically confirmed diagnosis of Tay-Sachs disease presented with dysarthrophonia, tremor, ataxia of stance and gait, paraparesis, and muscular atrophy. Prior to treatment, the patient required the support of both a caregiver on one side and a wall on the other in order to walk down a corridor. The patient was receiving sodium-valproate (500 mg/d), lithium (450 mg/d), and risperidone (3 mg/d) (medications for clinically diagnosed bipolar disorder), and continued to do so during treatment with N-Acetyl-DL-Leucine. The patient was also receiving physiotherapy, ergotherapy, and logotherapy twice a week.
A patient with a genetically confirmed diagnosis of Tay-Sachs disease presented with ataxia of stance and gait, fine motor impairment, paraparesis of lower extremities and muscular atrophy. They were receiving physiotherapy, ergotherapy and logotherapy and continued to do so during treatment with N-Acetyl-DL-Leucine.
A patient suffering from Sandhoff disease, with muscle hypotrophy, epileptic cramps (tonic-clonic, about 10 seconds, self-limiting), disordered ocular movement and anarthria. Their daily activities were very limited, being unable to eat, wash, or dress themself. They were receiving levetiracetam (1 g/d), lamotrigine (100 mg/d), omeprazole (20 mg/d), and miglustat (300 mg/d), in addition to physiotherapy, ergotherapy and logotherapy, and continued to do so during treatment with N-Acetyl-DL-Leucine.

Sandhoff (Hexb^−/−) mice [3] = experiment: Survival of Sandhoff (Hexb−/−) mice; assay type: in vivo, mouse; conditions: Hexb−/− mice treated from weaning, 0.1 g/kg/day
Protocol: as §1
[…] Treatment groups for in vivo study consisted of at least 5 mice per group. In vitro studies were conducted with each compound dissolved in PBS to generate a 50 mM stock solution and diluted to a 1 mM working concentration in media (DMEM High Glucose-Gibco #10566016).
(§2) The weight and activity of each mouse was recorded weekly until reaching the humane endpoint (defined as a loss of 1 g body weight within 24 h). Gait analysis was performed using CatWalk 10.5 system (Noldus) according to the manufacturer's instructions and five runs were recorded per animal at each time point. The camera was set to 40 cm below the walkway, the walkway was approximately 4 cm wide, and detection settings set to camera gain 14.05 and green intensity 0.12. Motor function was measured using an accelerating NG Rota Rod for mice (Ugo Basile) starting from 1 rpm to 10 rpm, accelerating every 30 seconds by one rpm. […] Latency to cross or fall from the bar was scored, with 120 sec, maximum, to termination of each trial. […]

Npc1^−/− mice = experiment: Survival / life span of Npc1−/− mice; assay type: in vivo, mouse
Protocol: as §1
(§3) ADLL and enantiomers (ADLL: Molekula #73891210, ALL: Sigma Aldrich #441511, ADL: Sigma #A0876) were administered as dry admix in powdered mouse diet (PicoLab Rodent Diet 20/5053, LabDiet) at a dose of 0.1 g/kg/day for in vivo studies. Treatment groups for in vivo study consisted of at least 5 mice per group. In vitro studies were conducted with each compound dissolved in PBS to generate a 50 mM stock solution and diluted to a 1 mM working concentration in media (DMEM High Glucose-Gibco #10566016).
Miglustat (Monsanto/Oxford GlycoSciences) was administered as a dry solid mixed with powdered chow (600 mg/kg/day) (see above) alone or in combination with ADLL.
as §2, with “rpm. Bar crossing experiments on Sandhoff animals were conducted to measure motor strength and coordination. The apparatus used was modified from published studies.” for “rpm.”

[4] = system: Npc1^−/− Chinese Hamster Ovary (CHO) cells; experiment: Lysotracker Green relative lysosomal volume (FACS) in NPC1 null CHO cells; assay type: cell-based; conditions: 1 mM
Protocol: Wild type and NPC1 null Chinese Hamster Ovary (CHO) cells were kindly provided by Chris Wassif (NIH).
as §3
Lysotracker Green and Propidium Iodide Staining of CHO cells: In vitro FACS experiments were performed in order to measure relative acidic compartment volume staining live cells with LysoTracker™ Green DND-26 (Thermo Fisher-L7526) at 250 nM for 10 minutes in PBS at RT, centrifuged at 1200 rpm for 10 min and cells resuspended in FACS buffer (PBS, 1% BSA, 0.1% NaN3 sodium azide). Cells were stained with propidium iodide (20 nM) (Invitrogen-P3566) immediately prior to analysis on the FACS for dead cell discrimination. FACS analysis was performed on 10,000 recorded cells using FACS Canto (Becton Dickinson, (BD)) with BD software.

[5] = 0.1 g per kg body weight per day, baseline vs one month on medication

CC(=O)NC(CC(C)C)C(=O)O (racemic) [ADLL, N-acetyl-DL-leucine]
Bar-crossing test performance (Sandhoff (Hexb^−/−) mice [1]): significantly improved
improvement reported by patients and caregivers [2]: subjective improvement
mean improvement of the 8-M-Walking-Test (8MWT) [2, 5]: 17.8%
mean improvement of the Montreal Cognitive Assessment (MoCA) [2, 5]: 42%
mean improvement of the Scale for Assessment and Rating of Ataxia (SARA) [2, 5]: 20.3%
median increase in lifespan (Sandhoff (Hexb^−/−) mice [3]): 8 days
median survival (Npc1^−/− mice; Npc1−/− mice, ADLL 0.1 g/kg/day, miglustat 600 mg/kg/day in chow, untreated Npc1−/− 87 days): 91 days
reduction of relative lysosomal volume ([4]; 24 h): 16.9%
reduction of relative lysosomal volume ([4]; 72 h): 24%

CC(=O)N[C@H](CC(C)C)C(=O)O [ADL, N-acetyl-D-leucine]
increase in life span (Npc1^−/− mice; Npc1−/− mice treated from weaning, 0.1 g/kg/day, relative to untreated Npc1−/−): not changed
reduction of relative lysosomal volume ([4]; 72 h): 22.3%

CC(=O)N[C@@H](CC(C)C)C(=O)O [ALL, N-acetyl-L-leucine]
reduction of relative lysosomal volume ([4]; 24 h): 16%
reduction of relative lysosomal volume ([4]; 72 h): 22.8%
